Four molecules from article PMC11243638, “Enhanced Antioxidant, Anti-Aging, Anti-Tyrosinase, and Anti-Inflammatory Properties of Vanda coerulea Griff. Ex Lindl. Protocorm through Elicitations with Chitosan” (Plants, 2024) can be followed below.

Marks after values point to notes of the source that are not given here.

Series [1] concerns the target T1, porcine pancreatic elastase (Sus scrofa, UniProt P00772).
T1 construct: purchased Sigma-Aldrich; host or cells: porcine pancreas
Kind of series: Elastase inhibition, spectrophotometric assay. It is filed as biochemical. The following applies: mean ± SD, triplicate; ND = not determined due to low potency. As for the experimental part: The capability of the extracts derived from the adult V. coerulea plant and its protocorms to inhibit elastase activities was evaluated through a spectrophotometric assay, which was modified from the methods described by Thring et al. (2009). Initially, an elastase solution at a concentration of 0.03 units/mL was prepared, comprising elastase sourced from porcine pancreas, along with 0.2 M Tris-HCl buffer pH 8.0. Subsequently, 10 µL of the sample solution was combined with 40 µL of the elastase solution. After the resulting mixture was incubated for 15 min at ambient temperature, 100 µL of 1.6 mM AAAVPN in tris HCl buffer pH 8.0 was introduced to initiate the enzymatic reaction. Immediately, the absorbance was measured kinetically at 410 nm for a duration of 20 min using a multimode microplate reader (BMG Labtech GmbH, Ortenberg, Germany). […] Various concentrations of each extract were evaluated, and their elastase inhibitions were plotted against their logarithmic concentrations to generate dose–response curves. The IC50 values were calculated from the curves using GraphPad Prism (version 8.0.2, GraphPad Software, Boston, MA, USA). […] was used as the positive control. The analysis was performed in triplicate.

Series [2] deals with collagenase from Clostridium histolyticum. As to the kind of experiment: Collagenase (MMP-1) inhibition, spectrophotometric assay with FALGPA. The following applies: mean ± SD, triplicate; ND = not determined due to low potency. Format: biochemical. The procedure:
The capability of the extracts derived from the adult V. coerulea plant and its protocorms to inhibit the MMP-1 activities was evaluated through a spectrophotometric assay, which was modified from the methods described by Thring et al. (2009). Initially, an MMP-1 solution at a concentration of 0.1 units/mL was prepared, comprising MMP-1 sourced from C. histolyticum, along with 400 mM NaCl, 10 mM CaCl2, and 50 mM tricine buffer pH 7.5. Subsequently, 20 µL of the sample solution was combined with 20 µL of the MMP-1 solution and 80 µL of Tricine buffer pH 7.5. […] Immediately, the absorbance was measured kinetically at 340 nm for a duration of 20 min using a multimode microplate reader (BMG Labtech GmbH, Ortenberg, Germany). The findings were then expressed as the percentage of MMP-1 inhibition, calculated according to the subsequent equation:MMP-1 inhibition (%) = [(a − b)/a] × 100,(3) where a is the reaction rate of the combination without a sample, while b is the reaction rate of the combination with a sample. Various concentrations of each extract were evaluated, and their MMP-1 inhibitions were plotted against their logarithmic concentrations to generate dose–response curves. The IC50 values were calculated from the curves using GraphPad Prism (version 8.0.2, GraphPad Software, Boston, MA, USA). […]

Series [3] can be described thus: Ferric-reducing antioxidant power (FRAP) assay. Format: biochemical. The following applies: mean ± SD, triplicate. As for the experimental part:
The capability of the extracts derived from the adult V. coerulea plant and its protocorms to reduce ferric was evaluated through a FRAP assay, which was modified from the methods described by Saeio et al. (2011). Initially, 20 µL of the sample solution was combined with 180 µL of the FRAP solution, prepared by mixing 0.3 M acetate buffer pH 3.6, 10 mM TPTZ in 40 mM HCl solution and 20 mM ferric chloride solution. After incubating the resulting mixture at room temperature for 5 min, the absorbance was measured at 595 nm using a multimode microplate reader (BMG Labtech GmbH, Ortenberg, Germany). The findings were then expressed as the percentage of ferric reducing ability, calculated according to the subsequent equation:Ferric reducing abilities (%) = [(a − b)/a] × 100,(2) where a is the UV absorbance of the combination without a sample, while b is the UV absorbance of the combination with a sample. Various concentrations of each extract were evaluated, and their ferric reducing abilities were plotted against their logarithmic concentrations to generate dose–response curves. […] L-ascorbic acid was used as the positive control. The analysis was performed in triplicate.

A short description of series [4]: DPPH radical scavenging assay. It is filed as biochemical. The following applies: mean ± SD, triplicate; ND = not determined due to low potency. As for the experimental part: The capability of the extracts derived from the adult V. coerulea plant and its protocorms to scavenge DPPH radicals was evaluated through a DPPH assay, which was modified from the methods described by Brem et al. (2004). Initially, 20 µL of the sample solution was combined with 180 µL of a DPPH solution, prepared by dissolving […] DPPH in DI water. After incubating the resulting mixture in darkness at room temperature for 30 min, the absorbance was measured at 520 nm using a multimode microplate reader (BMG Labtech GmbH, Ortenberg, Germany). […] Various concentrations of each extract were evaluated, and their DPPH inhibitions were plotted against their logarithmic concentrations to generate dose–response curves. […] L-ascorbic acid was used as the positive control. The analysis was performed in triplicate.

In series [5] the test system is chorioallantoic membrane of fertilized hen eggs. Kind of series: Hen's egg-chorioallantoic membrane (HET-CAM) irritation test. The note with it: 1% w/v, positive control. As for the experimental part: The irritation potency of the extracts derived from the adult V. coerulea plant and its protocorms was evaluated through a HET-CAM test, which was previously described by Luepke and Kemper (1986). The fertilized black hen eggs from the Pradu Hang Dam Chiang Mai breed aged between 7 and 9 days were used in the HET-CAM test. As the embryos were in the early stages of development, ethical approval was not required. Typically, hen eggs require 21 days of incubation, and the fertilized eggs aged between 7 to 9 days, which was less than halfway through their incubation cycle, were not considered animals. Prior to the test, the eggshell above the air cell was cracked open, and the inner membrane was moistened with a normal saline solution. […] The duration until the first appearance of each irritation sign was meticulously monitored and recorded in seconds, which enabled the subsequent computation of the irritation score (IS) using the following equation:IS = [(301 − t(h))/300] × 5 + [(301 − t(l))/300] × 7 + [(301 − t(c))/300] × 9,(8) where t(h) is the time of the first appearance of hemorrhage in seconds, t(l) is the time of the first appearance of vascular lysis in seconds, and t(c) is the first appearance of vascular coagulation in seconds. […]

Broadly, the IC50 is the concentration at which inhibition is half-maximal. A higher IC50 goes with lower potency.

T1 sequence (P00772 27-266): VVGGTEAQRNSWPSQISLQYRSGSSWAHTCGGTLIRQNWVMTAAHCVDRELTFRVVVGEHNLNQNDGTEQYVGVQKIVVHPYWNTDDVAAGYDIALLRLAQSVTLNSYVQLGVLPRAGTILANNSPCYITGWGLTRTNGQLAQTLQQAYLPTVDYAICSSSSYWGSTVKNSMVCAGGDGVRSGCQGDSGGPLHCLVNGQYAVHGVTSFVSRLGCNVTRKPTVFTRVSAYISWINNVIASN

Take `O=C(O[C@@H]1Cc2c(O)cc(O)cc2O[C@@H]1c1cc(O)c(O)c(O)c1)c1cc(O)c(O)c(O)c1` [EGCG, epigallocatechin gallate]: the “IC50 Elastase Inhibition” value in series [1] is on record as 0.1 ± 0.0 ^a µg/mL. In addition, the “IC50 Collagenase Inhibition” value in series [2] is given as 16.9 ± 3.2 ^b µg/mL.

As to `C[C@@H]1O[C@@H](OC[C@H]2O[C@@H](Oc3c(-c4ccc(O)c(O)c4)oc4cc(O)cc(O)c4c3=O)[C@H](O)[C@@H](O)[C@@H]2O)[C@H](O)[C@H](O)[C@H]1O` [RT, rutin], in series [3], the “IC50 Ferric Reducing Capacity” value was 12.9 ± 2.0 ^b µg/mL. Also, the IC50 in series [1] was 17.2 µM. Moreover, in series [2], the “IC50 Collagenase Inhibition” value is given as 7.6 ± 3.4 ^a µg/mL. Further, the “IC50 DPPH Inhibition” value in series [4] is given as 3.2 ± 2.7 ^a µg/mL.

On to `O=C1O[C@H]([C@@H](O)CO)C(O)=C1O` [AS, ascorbic acid], for which the “IC50 Ferric Reducing Capacity” value in series [3] is 2.4 ± 0.7 ^a µg/mL. Further, in series [4], the “IC50 DPPH Inhibition” value was 3.5 ± 2.9 ^a µg/mL.

Turning to `CCCCCCCCCCCCOS(=O)(=O)[O-].[Na+]` [SLS, sodium lauryl sulfate], in series [5], the “Irritation Level” value is listed as “Severe irritation (9.0–21.0 for severe irritation)” and the “Irritation Score (IS)” value came to 15.13 ± 0.3.
